The results in this text go back to PMC6099740, “Design, Synthesis and Biological Evaluation of 6,7-Disubstituted-4-phenoxyquinoline Derivatives Bearing Pyridazinone Moiety as c-Met Inhibitors” (Molecules : A Journal of Synthetic Chemistry and Natural …, 2018).

SMILES strings stand for the structures.

The test system of data set [1] is A549 cells. As to the kind of experiment: MTT cytotoxicity assay, A549. Format: cell-based. Conditions: Homo sapiens, 72 h. The method, then: (§1) The results expressed as IC50 values were summarized in Table 1, and the values were the average of at least two independent experiments.
(§2) The cancer cell lines were cultured in minimum essential medium (MEM) supplement with 10% fetal bovine serum (FBS). […] The test compounds at indicated final concentrations were added to the culture medium and the cell cultures were continued for 72 h. […] All of the compounds were tested two times in each of the cell lines. The results expressed as inhibition rates or IC50 (half-maximal inhibitory concentration) were the averages of two determinations and calculated by using the Bacus Laboratories Incorporated Slide Scanner (Bliss) software (the Bacus Laboratories Inc. Slide Scanner (BLISS) system, Lombard, IL, USA)..

In data set [2] the test system is MCF-7 cells. In words: MTT cytotoxicity assay, MCF-7. Conditions: Homo sapiens, MCF7, 72 h. It counts as cell-based. The method, then:
as §1, §2
A general note: Formazan colour is commonly taken as a measure of viable cells.

Data set [3] has as its system HepG2 cells. In words: MTT cytotoxicity assay, HepG2. It counts as cell-based. Conditions: Homo sapiens, 72 h. The method, then:
as §1
(§3) The cancer cell lines were cultured in minimum essential medium (MEM) supplement with 10% fetal bovine serum (FBS). Approximately 4 × 10^3 cells, suspended in MEM medium, were plated onto each well of a 96-well plate and incubated in 5% CO2 at 37 °C for 24 h. The test compounds at indicated final concentrations were added to the culture medium and the cell cultures were continued for 72 h. Fresh MTT was added to each well at a terminal concentration of 5 μg/mL and incubated with cells at 37 °C for 4 h. The formazan crystals were dissolved in 100 μL DMSO each well, and the absorbency at 492 nm (for absorbance of MTT formazan) and 630 nm (for the reference wavelength) was measured with the ELISA reader. All of the compounds were tested two times in each of the cell lines. The results expressed as inhibition rates or IC50 (half-maximal inhibitory concentration) were the averages of two determinations and calculated by using the Bacus Laboratories Incorporated Slide Scanner (Bliss) software (the Bacus Laboratories Inc. Slide Scanner (BLISS) system, Lombard, IL, USA)..

In data set [4] the target is c-Met kinase (Homo sapiens, UniProt P08581). In words: c-Met kinase inhibition assay (HTRF; mobility shift).
Chain of c-Met kinase (P08581 25-1390): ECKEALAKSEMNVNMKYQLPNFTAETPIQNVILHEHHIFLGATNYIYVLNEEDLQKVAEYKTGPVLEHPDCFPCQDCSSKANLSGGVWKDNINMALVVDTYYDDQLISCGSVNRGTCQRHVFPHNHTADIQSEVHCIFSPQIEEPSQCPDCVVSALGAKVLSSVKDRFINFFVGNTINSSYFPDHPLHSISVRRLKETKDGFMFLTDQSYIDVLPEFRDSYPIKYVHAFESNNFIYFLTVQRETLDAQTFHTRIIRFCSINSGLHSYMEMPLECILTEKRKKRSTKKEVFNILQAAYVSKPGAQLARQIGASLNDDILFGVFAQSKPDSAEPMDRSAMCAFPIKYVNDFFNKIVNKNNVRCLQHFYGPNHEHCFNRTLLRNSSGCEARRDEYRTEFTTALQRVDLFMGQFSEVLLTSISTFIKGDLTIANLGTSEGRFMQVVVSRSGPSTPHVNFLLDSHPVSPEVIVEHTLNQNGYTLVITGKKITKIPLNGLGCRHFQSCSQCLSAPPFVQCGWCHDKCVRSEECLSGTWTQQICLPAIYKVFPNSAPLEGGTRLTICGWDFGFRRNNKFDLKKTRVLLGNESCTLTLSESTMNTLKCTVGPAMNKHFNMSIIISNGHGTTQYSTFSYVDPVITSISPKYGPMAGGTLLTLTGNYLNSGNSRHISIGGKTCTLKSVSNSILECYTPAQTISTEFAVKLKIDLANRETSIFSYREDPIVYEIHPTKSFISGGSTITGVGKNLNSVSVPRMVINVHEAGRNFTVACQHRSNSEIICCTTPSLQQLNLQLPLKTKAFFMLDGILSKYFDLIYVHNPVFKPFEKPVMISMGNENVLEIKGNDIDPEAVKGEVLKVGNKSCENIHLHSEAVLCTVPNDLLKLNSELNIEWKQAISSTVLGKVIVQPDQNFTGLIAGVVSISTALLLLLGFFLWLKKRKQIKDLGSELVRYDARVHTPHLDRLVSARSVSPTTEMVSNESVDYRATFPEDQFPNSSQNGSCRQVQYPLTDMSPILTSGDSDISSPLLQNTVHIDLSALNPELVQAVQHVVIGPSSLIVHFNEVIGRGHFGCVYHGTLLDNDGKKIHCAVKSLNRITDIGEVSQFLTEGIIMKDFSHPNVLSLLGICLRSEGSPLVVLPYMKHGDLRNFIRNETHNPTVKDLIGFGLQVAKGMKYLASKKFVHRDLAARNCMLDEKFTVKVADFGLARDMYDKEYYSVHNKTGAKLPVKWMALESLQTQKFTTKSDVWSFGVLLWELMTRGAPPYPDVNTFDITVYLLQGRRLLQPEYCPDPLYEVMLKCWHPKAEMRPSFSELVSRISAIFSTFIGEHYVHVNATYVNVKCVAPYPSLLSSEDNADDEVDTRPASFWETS
Description: All kinase assays were performed in 96-well plates in a 50 µL reaction volume. The kinase buffer contains 50 mM HEPES, pH 7.5, 10 mM MgCl2, 0.0015% Brij-35 and 2 mM DTT. The stop buffer contains 100 mM HEPES, pH 7.5, 0.015% Brij-35, 0.2% Coating Reagent 3 and 50 mM EDTA. Dilute the compounds to 500 µM by 100% DMSO, then transfer 10 µL of compound to a new 96-well plate as the intermediate plate, add 90 µL kinase buffer to each well. Transfer 5 µL of each well of the intermediate plate to 384-well plates. The following amounts of enzyme and substrate were used per well: kinase base buffer, FAM-labeled peptide, ATP and enzyme solution. Wells containing the substrate, enzyme, DMSO without compound were used as DMSO control. Wells containing just the substrate without enzyme were used as low control. Incubate at room temperature for 10 min. Add 10 µL peptide solution to each well. […] At last collect data on Caliper program and convert conversion values to inhibition values. Percent inhibition = (max − conversion)/(max − min) × 100. ‘max’ stands for DMSO control; ‘min’ stands for low control [20].
The test system of data set [5] is A549, HepG2, MCF-7. As to the kind of experiment: MTT cytotoxicity assay, range over the three cancer cell lines. Format: cell-based. Conditions: Homo sapiens; range over A549, HepG2 and MCF-7. The method, then:
as §1, §3

The melting point is the temperature, or range, at which the solid turns liquid. As a reminder, the IC50 is the point on the concentration scale where inhibition reaches its midpoint.

As for `COc1cc2c(Oc3ccc(NC(=O)c4nn(-c5ccc(Br)cc5)ccc4=O)cc3F)ccnc2cc1OCCCN1CCCCC1` [Compound 32, 1-(4-Bromophenyl)-N-(3-fluoro-4-((6-methoxy-7-(3-(piperidin-1-yl)propoxy)quinolin-4-yl)oxy)phenyl)-4-oxo-1,4-dihydropyridazine-3-carboxamide], the melting point lay in the range of 141.3 to 143.4 °C. In data set [1], half-maximal inhibition (IC50) was put at 2890 ± 460 nM. Moreover, in data set [2], the half-maximal inhibitory concentration (IC50) was 2450 ± 390 nM. In data set [3], this compound returned an IC50 of 1.75 ± 0.24 µM. In addition, the half-maximal inhibitory concentration (IC50) in data set [4] was 246 nM.
In the same order, the values of `COc1ccc(-n2ccc(=O)c(C(=O)Nc3ccc(Oc4ccnc5cc(OCCCN6CCCCC6)c(OC)cc45)c(F)c3)n2)cc1` [Compound 33, N-(3-Fluoro-4-((6-methoxy-7-(3-(piperidin-1-yl)propoxy)quinolin-4-yl)oxy)phenyl)-1-(4-methoxyphenyl)-4-oxo-1,4-dihydropyridazine-3-carboxamide] are 105.4 to 106.5 °C, 2780 ± 440 nM, 2350 ± 370 nM, 0.63 ± 0.08 µM and 56 nM.
In the case of `COc1cc2c(Oc3ccc(NC(=O)c4nn(-c5ccc(F)c(Cl)c5)ccc4=O)cc3F)ccnc2cc1OCCCN1CCCCC1` [Compound 34, 1-(3-Chloro-4-fluorophenyl)-N-(3-fluoro-4-((6-methoxy-7-(3-(piperidin-1-yl)propoxy)quinolin-4-yl)oxy)phenyl)-4-oxo-1,4-dihydropyridazine-3-carboxamide], the melting point lay within 121.7 to 123.4 °C. Moreover, half-maximal inhibition in data set [1] (IC50) was put at 360 ± 40 nM. The IC50 in data set [2] came out at 150 ± 40 nM. This compound had a concentration for half-maximal inhibition (IC50) in data set [3] of 1.28 ± 0.11 µM. Further, the IC50 in data set [4] was 2 nM.
In the same order, the values of `COc1cc2c(Oc3ccc(NC(=O)c4nn(-c5ccc(Br)cc5F)ccc4=O)cc3F)ccnc2cc1OCCCN1CCCCC1` [Compound 35, 1-(4-Bromo-2-fluorophenyl)-N-(3-fluoro-4-((6-methoxy-7-(3-(piperidin-1-yl)propoxy)quinolin-4-yl)oxy)phenyl)-4-oxo-1,4-dihydropyridazine-3-carboxamide] are 105.9 to 107.4 °C, 1360 ± 190 nM, 1190 ± 80 nM, 3.1 ± 0.49 µM and 8 nM.
As for `COc1cc2c(Oc3ccc(NC(=O)c4nn(-c5ccc(Cl)c(C(F)(F)F)c5)ccc4=O)cc3F)ccnc2cc1OCCCN1CCCCC1` [Compound 36, 1-(4-Chloro-3-(trifluoromethyl)phenyl)-N-(3-fluoro-4-((6-methoxy-7-(3-(piperidin-1-yl)propoxy)quinolin-4-yl)oxy)phenyl)-4-oxo-1,4-dihydropyridazine-3-carboxamide], the melting point is 185.7 to 186.6 °C. In data set [1], half-maximal inhibition (IC50) was put at 790 ± 60 nM. In data set [2], this compound displayed a half-maximal inhibitory concentration (IC50) of 730 ± 80 nM. Further, in data set [3], the midpoint of inhibition, the IC50, lay at 1.8 ± 0.26 µM. The half-inhibitory concentration (IC50) in data set [4] turned out to be 11 nM.
The compound `COc1cc2c(Oc3ccc(NC(=O)c4nn(-c5ccccc5)ccc4=O)cc3F)ccnc2cc1OCCCN1CCCCC1` [Compound 37, N-(3-Fluoro-4-((6-methoxy-7-(3-(piperidin-1-yl)propoxy)quinolin-4-yl)oxy)phenyl)-4-oxo-1-phenyl-1,4-dihydropyridazine-3-carboxamide] registered a melting point of 152.3 to 153.1 °C. The compound also gave an IC50 in data set [5] of 2 to 1030 nM. The 50% inhibitory concentration (IC50) in data set [1] turned out to be 60 ± 10 nM. In addition, it took 30 ± 10 nM to reach half-maximal inhibition in data set [2] (IC50). The compound further gave a 50% inhibitory concentration (IC50) in data set [3] of 0.18 ± 0.01 µM. In data set [4], the IC50 turned out to be 4 nM.
Take `COc1cc2c(Oc3ccc(NC(=O)c4nn(-c5ccc(F)cc5)ccc4=O)cc3F)ccnc2cc1OCCCN1CCC(C)CC1` [Compound 38, N-(3-Fluoro-4-((6-methoxy-7-(3-(4-methylpiperidin-1-yl)propoxy)quinolin-4-yl)oxy)phenyl)-1-(4-fluorophenyl)-4-oxo-1,4-dihydropyridazine-3-carboxamide]: the melting point lay in the range of 210.1 to 211.4 °C. Moreover, the IC50 in data set [1] was determined as 28900 ± 1460 nM. Inhibition in data set [2] was half-maximal at 22500 ± 1350 nM (IC50). Half-maximal inhibition in data set [3] (IC50) required 47.2 ± 1.67 µM. Besides, the IC50 in data set [4] was above 500 nM.
In the same order, the values of `COc1cc2c(Oc3ccc(NC(=O)c4nn(-c5ccc(Cl)cc5)ccc4=O)cc3F)ccnc2cc1OCCCN1CCC(C)CC1` [Compound 39, 1-(4-Chlorophenyl)-N-(3-fluoro-4-((6-methoxy-7-(3-(4-methylpiperidin-1-yl)propoxy)quinolin-4-yl)oxy)phenyl)-4-oxo-1,4-dihydropyridazine-3-carboxamide] are 220.6 to 222.1 °C, 12400 ± 1090 nM, 14100 ± 1150 nM, 7.81 ± 0.89 µM and 169 nM.
In the same order, the values of `COc1cc2c(Oc3ccc(NC(=O)c4nn(-c5ccc(Br)cc5)ccc4=O)cc3F)ccnc2cc1OCCCN1CCC(C)CC1` [Compound 40, 1-(4-Bromophenyl)-N-(3-fluoro-4-((6-methoxy-7-(3-(4-methylpiperidin-1-yl)propoxy)quinolin-4-yl)oxy)phenyl)-4-oxo-1,4-dihydropyridazine-3-carboxamide] are 220.7 to 221.4 °C, 13500 ± 1130 nM, 9740 ± 990 nM, 8.84 ± 0.95 µM and 345 nM.
Compound `COc1ccc(-n2ccc(=O)c(C(=O)Nc3ccc(Oc4ccnc5cc(OCCCN6CCC(C)CC6)c(OC)cc45)c(F)c3)n2)cc1` [Compound 41, N-(3-Fluoro-4-((6-methoxy-7-(3-(4-methylpiperidin-1-yl)propoxy)quinolin-4-yl)oxy)phenyl)-1-(4-methoxyphenyl)-4-oxo-1,4-dihydropyridazine-3-carboxamide] returned a melting point of 145.1 to 146.3 °C. In addition, the IC50 in data set [5] is 2 to 1030 nM. In data set [1], the IC50 is 20 ± 10 nM. In data set [2], this compound yielded a half-inhibitory concentration (IC50) of 20 ± 10 nM. In data set [3], this compound had a concentration for half-maximal inhibition (IC50) of 0.008 ± 0.001 µM. In addition, the IC50 in data set [4] amounted to 0.9 nM.
`COc1cc2c(Oc3ccc(NC(=O)c4nn(-c5ccc(Cl)c(C(F)(F)F)c5)ccc4=O)cc3F)ccnc2cc1OCCCN1CCC(C)CC1` [Compound 44, 1-(4-Chloro-3-(trifluoromethyl)phenyl)-N-(3-fluoro-4-((6-methoxy-7-(3-(4-methylpiperidin-1-yl)propoxy)quinolin-4-yl)oxy)phenyl)-4-oxo-1,4-dihydropyridazine-3-carboxamide] had a melting point of 137.7 to 138.6 °C. Moreover, 150 ± 30 nM corresponded to half-maximal inhibition in data set [1] (IC50). The compound also displayed an IC50 in data set [2] of 5960 ± 70 nM. Half-maximal inhibition in data set [3] (IC50) required 0.65 ± 0.05 µM. Moreover, in data set [4], the half-inhibitory concentration (IC50) was 19 nM.
The like results for `COc1cc2c(Oc3ccc(NC(=O)c4nn(-c5ccccc5)ccc4=O)cc3F)ccnc2cc1OCCCN1CCC(C)CC1` [Compound 45, N-(3-Fluoro-4-((6-methoxy-7-(3-(4-methylpiperidin-1-yl)propoxy)quinolin-4-yl)oxy)phenyl)-4-oxo-1-phenyl-1,4-dihydropyridazine-3-carboxamide] were, in that order, 148.5 to 150.1 °C, 2950 ± 470 nM, 2010 ± 300 nM, 4.66 ± 0.67 µM and 187 nM.
Compound `COc1cc2c(Oc3ccc(NC(=O)c4nn(-c5ccc(Cl)cc5)ccc4=O)cc3F)ccnc2cc1OCCCN1CCN(C)CC1` [Compound 47, 1-(4-Chlorophenyl)-N-(3-fluoro-4-((6-methoxy-7-(3-(4-methylpiperazin-1-yl)propoxy)quinolin-4-yl)oxy)phenyl)-4-oxo-1,4-dihydropyridazine-3-carboxamide] gave a melting point of 163.5 to 165.3 °C. For the same compound, the half-inhibitory concentration (IC50) in data set [1] worked out at 20000 ± 1300 nM. The compound also showed an IC50 in data set [2] of 21100 ± 1320 nM. The midpoint of inhibition in data set [3], the IC50, lay at 14.2 ± 1.15 µM. Besides, the IC50 in data set [4] was 145 nM.
The like results for `COc1cc2c(Oc3ccc(NC(=O)c4nn(-c5ccc(Br)cc5)ccc4=O)cc3F)ccnc2cc1OCCCN1CCN(C)CC1` [Compound 48, 1-(4-Bromophenyl)-N-(3-fluoro-4-((6-methoxy-7-(3-(4-methylpiperazin-1-yl)propoxy)quinolin-4-yl)oxy)phenyl)-4-oxo-1,4-dihydropyridazine-3-carboxamide] were, in that order, 159.7 to 161.2 °C, above 50000 nM, above 50000 nM, above 50 µM and above 500 nM.
In the same order, the values of `COc1ccc(-n2ccc(=O)c(C(=O)Nc3ccc(Oc4ccnc5cc(OCCCN6CCN(C)CC6)c(OC)cc45)c(F)c3)n2)cc1` [Compound 49, 1-(4-((l1-Oxidanyl)-l5-methyl)phenyl)-N-(3-fluoro-4-((6-methoxy-7-(3-(4-methylpiperazin-1-yl)propoxy)quinolin-4-yl)oxy)phenyl)-4-oxo-1,4-dihydropyridazine-3-carboxamide] are 167.5 to 169.1 °C, 9120 ± 960 nM, 8120 ± 910 nM, 3.68 ± 0.57 µM and 78 nM.
